Laboratory results as given in ChEMBL document CHEMBL1201862, “PubChem BioAssay data set” (2004).
Each block holds one compound with its values, some of them ahead of it. Calls of active or inactive are those of the source.

Experiments:
[1] = target: Glucose-6-phosphate 1-dehydrogenase (Homo sapiens, UniProt P11413); test: inhibition of Homo sapiens G6PD, dose series – biochemical, fluorescence, selectivity assay for P. falciparum G6PD inhibitor project, dose response (AID 504792); type: functional
Sequence of Glucose-6-phosphate 1-dehydrogenase (P11413 whole entry): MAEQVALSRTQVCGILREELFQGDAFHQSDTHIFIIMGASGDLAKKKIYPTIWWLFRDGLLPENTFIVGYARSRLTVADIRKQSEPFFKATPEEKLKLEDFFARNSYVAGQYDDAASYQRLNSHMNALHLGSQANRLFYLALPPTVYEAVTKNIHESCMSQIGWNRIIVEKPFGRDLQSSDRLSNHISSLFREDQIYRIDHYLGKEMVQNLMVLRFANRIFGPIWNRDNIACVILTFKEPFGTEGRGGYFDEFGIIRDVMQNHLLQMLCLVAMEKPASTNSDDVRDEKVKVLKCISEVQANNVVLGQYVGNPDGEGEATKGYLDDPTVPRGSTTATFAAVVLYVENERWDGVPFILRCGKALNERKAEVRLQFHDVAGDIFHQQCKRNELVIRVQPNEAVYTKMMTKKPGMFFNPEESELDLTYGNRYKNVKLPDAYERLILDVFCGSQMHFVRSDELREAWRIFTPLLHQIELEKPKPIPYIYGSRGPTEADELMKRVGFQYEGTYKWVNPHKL

[2] = target: Nuclear receptor subfamily 5 group A member 2 (Homo sapiens, UniProt O00482); type: functional, cell-based;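 also: HEK293T cells transfected with LRH-1 and a StAR promoter luciferase reporter; potency for inhibitors that lower LRH-1 driven reporter light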
Sequence of Nuclear receptor subfamily 5 group A member 2 (O00482 whole entry): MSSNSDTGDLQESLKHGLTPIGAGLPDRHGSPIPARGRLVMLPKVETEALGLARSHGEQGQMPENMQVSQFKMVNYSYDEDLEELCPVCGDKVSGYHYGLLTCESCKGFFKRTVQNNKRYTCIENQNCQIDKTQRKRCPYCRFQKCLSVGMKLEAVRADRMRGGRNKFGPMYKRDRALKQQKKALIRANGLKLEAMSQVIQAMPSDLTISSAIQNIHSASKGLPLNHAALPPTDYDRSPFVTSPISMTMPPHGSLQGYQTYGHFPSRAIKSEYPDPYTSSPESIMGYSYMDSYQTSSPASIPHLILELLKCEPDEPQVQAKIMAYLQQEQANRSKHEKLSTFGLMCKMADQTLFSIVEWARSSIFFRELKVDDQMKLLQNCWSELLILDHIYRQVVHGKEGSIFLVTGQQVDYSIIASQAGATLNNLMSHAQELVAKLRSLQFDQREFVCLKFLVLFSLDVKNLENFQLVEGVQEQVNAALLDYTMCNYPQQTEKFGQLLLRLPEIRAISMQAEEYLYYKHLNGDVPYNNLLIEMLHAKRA

[3] = target: Steroidogenic factor 1 (Homo sapiens, UniProt Q13285); test: Counterscreen for inverse agonists of the liver receptor homolog-1 (LRH-1; NR5A2): Luminescence-based cell-based high throughput dose response assay to identify inverse agonists of the Steroidogenic Factor 1 Nuclear Receptor (SF1; NR5A1).; type: functional
Sequence of Steroidogenic factor 1 (Q13285 whole entry): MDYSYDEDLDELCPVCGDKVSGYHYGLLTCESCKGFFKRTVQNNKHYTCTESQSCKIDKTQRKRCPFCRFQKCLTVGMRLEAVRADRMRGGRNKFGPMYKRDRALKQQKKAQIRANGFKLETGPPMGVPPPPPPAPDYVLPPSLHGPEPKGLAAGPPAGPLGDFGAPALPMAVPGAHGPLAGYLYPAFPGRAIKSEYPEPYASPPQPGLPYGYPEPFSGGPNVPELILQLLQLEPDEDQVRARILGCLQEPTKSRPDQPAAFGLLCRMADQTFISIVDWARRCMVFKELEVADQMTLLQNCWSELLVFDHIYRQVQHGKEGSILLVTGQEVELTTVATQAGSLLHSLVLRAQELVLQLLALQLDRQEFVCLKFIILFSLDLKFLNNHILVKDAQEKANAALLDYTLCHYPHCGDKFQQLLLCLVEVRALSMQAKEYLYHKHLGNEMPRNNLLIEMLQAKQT

[4] = nonselective StAR promoter luciferase inhibitors – cell-based, luminescence, luciferase reporter, counter-screen for LRH-1 inverse agonist project, dose response (AID 651969); type: functional
[5] = target: T1, Low molecular weight phosphotyrosine protein phosphatase (Homo sapiens, UniProt P24666); type: functional; conditions: read-out: IC50_Mean;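 also: Dose-response confirmation assay measuring inhibition of LMPTP enzyme activity by fluorescence intensity read-out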
T1 sequence (P24666 whole entry): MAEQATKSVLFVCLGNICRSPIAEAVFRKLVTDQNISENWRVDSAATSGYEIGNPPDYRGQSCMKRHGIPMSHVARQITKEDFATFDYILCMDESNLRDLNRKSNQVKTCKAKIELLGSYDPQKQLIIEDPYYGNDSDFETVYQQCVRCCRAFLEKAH

[6] = target: Dual specificity tyrosine-phosphorylation-regulated kinase 1A (Rattus norvegicus, UniProt Q63470); type: biochemical, Homo sapiens
[7] = target: T2, Fatty acid synthase (Homo sapiens, UniProt P49327); test: inhibition of human FAS-TE enzyme activity – biochemical, endpoint fluorescence intensity, uHTS hits, dose response (AID 624327); type: functional;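 also: fluorescence from hydrolysis of an O-methyl fluorescein acyl ester substrate by the enzyme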
T2 sequence (P49327 whole entry): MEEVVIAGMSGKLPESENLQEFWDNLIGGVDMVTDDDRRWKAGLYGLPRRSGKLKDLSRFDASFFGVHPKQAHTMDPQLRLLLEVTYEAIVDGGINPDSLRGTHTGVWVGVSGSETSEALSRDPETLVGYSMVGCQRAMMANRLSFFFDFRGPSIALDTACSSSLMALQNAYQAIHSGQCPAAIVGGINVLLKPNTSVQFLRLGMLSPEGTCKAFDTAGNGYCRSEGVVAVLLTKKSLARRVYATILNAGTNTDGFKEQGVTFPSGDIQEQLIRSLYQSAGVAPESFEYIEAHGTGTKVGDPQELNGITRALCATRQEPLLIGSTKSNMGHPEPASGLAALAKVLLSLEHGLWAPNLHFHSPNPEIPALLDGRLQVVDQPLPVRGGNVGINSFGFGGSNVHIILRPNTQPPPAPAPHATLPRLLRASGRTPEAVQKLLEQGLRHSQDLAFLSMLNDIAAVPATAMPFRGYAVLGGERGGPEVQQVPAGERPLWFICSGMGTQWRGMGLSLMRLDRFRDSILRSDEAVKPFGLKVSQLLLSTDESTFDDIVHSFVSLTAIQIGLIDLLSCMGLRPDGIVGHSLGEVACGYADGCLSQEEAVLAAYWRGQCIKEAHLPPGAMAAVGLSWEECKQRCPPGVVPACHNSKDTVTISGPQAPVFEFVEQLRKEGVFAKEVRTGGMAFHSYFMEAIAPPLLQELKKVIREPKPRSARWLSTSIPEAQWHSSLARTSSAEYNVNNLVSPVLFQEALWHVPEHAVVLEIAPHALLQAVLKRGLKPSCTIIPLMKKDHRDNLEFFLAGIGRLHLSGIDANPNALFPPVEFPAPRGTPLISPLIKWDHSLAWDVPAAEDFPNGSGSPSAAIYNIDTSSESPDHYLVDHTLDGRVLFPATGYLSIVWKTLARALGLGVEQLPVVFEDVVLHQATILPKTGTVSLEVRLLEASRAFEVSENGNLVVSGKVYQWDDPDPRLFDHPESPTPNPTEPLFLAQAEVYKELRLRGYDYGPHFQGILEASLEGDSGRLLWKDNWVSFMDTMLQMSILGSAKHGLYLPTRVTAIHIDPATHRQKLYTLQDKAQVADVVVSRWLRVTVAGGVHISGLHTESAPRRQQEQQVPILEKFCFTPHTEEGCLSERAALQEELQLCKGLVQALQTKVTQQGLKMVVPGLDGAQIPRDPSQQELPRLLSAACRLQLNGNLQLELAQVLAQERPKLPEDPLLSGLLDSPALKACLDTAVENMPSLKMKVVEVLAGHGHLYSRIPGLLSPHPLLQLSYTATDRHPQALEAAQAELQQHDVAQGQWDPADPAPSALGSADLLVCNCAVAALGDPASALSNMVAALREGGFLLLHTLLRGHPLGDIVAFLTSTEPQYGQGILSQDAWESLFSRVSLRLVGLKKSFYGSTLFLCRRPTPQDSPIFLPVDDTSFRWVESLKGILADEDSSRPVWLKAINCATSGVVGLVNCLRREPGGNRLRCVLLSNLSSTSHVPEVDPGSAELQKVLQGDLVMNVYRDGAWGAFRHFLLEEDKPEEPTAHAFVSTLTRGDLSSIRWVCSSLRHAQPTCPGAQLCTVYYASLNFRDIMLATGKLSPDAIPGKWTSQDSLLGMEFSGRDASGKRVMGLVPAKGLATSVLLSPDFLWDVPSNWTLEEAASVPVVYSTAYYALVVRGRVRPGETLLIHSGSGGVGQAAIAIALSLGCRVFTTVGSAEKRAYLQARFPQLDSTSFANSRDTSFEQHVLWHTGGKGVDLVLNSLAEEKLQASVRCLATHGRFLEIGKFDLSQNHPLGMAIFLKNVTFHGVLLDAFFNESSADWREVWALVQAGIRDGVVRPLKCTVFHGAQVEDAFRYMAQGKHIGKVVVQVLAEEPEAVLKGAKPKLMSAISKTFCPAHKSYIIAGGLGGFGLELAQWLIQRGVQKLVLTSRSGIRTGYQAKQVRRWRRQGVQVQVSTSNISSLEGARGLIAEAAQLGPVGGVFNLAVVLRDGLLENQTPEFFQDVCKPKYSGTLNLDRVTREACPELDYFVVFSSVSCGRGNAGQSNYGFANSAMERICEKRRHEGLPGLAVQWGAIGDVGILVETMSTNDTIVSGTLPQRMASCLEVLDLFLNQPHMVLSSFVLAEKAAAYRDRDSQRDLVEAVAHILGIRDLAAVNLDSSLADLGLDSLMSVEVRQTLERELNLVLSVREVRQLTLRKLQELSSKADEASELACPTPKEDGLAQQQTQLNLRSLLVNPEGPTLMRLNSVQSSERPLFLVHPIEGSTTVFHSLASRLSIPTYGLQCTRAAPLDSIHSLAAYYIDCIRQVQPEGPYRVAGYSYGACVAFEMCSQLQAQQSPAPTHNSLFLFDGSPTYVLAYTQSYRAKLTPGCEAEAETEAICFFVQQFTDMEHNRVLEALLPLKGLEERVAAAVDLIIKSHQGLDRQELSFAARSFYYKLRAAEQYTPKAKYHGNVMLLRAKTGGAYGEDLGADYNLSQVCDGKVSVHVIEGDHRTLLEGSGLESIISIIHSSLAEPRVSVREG

[8] = target: T2, Fatty acid synthase; test: inhibition of human FAS-TE enzyme activity – biochemical, kinetic fluorescence intensity, dose response (AID 624326); type: functional;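 also: rate of fluorescence rise from hydrolysis of a fluorogenic O-methyl fluorescein ester substrate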
[9] = NIH-3T3 fibroblast cytotoxicity, dose response, cytotoxicity control, cell-based, fluorescence, Alamar Blue, secondary assay (AID 2327); type: functional;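 also: NIH-3T3 mouse fibroblasts cultured with fluconazole at 8 µg/mL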
[10] = fluconazole-exposed Candida albicans growth modulators – fluorescence, retest, confirmation (AID 2467); type: functional, cell-based
[11] = target: T3, RNA-binding protein pos-1 (Caenorhabditis elegans, UniProt G5EF15); test: disruptors of C. elegans POS-1 RNA interaction – biochemical, fluorescence polarization, dose response (AID 1964);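 also: purified POS-1 fused to maltose binding protein made in E. coli; potency of compounds blocking POS-1 binding to fluorescent RNA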
T3 sequence (G5EF15 whole entry): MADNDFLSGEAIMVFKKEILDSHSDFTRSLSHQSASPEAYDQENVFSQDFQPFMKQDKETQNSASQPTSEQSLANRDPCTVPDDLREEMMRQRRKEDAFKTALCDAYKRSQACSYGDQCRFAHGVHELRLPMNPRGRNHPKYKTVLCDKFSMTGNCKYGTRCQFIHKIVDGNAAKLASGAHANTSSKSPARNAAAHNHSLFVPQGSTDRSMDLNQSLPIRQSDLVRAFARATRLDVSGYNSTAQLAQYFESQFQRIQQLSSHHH

[12] = target: T4, Zinc finger protein mex-5 (Caenorhabditis elegans, UniProt Q9XUB2); test: potency of MEX-5 RNA-binding blockers – biochemical, C. elegans, fluorescence polarization, dose response (AID 1960)
T4 sequence (Q9XUB2 whole entry): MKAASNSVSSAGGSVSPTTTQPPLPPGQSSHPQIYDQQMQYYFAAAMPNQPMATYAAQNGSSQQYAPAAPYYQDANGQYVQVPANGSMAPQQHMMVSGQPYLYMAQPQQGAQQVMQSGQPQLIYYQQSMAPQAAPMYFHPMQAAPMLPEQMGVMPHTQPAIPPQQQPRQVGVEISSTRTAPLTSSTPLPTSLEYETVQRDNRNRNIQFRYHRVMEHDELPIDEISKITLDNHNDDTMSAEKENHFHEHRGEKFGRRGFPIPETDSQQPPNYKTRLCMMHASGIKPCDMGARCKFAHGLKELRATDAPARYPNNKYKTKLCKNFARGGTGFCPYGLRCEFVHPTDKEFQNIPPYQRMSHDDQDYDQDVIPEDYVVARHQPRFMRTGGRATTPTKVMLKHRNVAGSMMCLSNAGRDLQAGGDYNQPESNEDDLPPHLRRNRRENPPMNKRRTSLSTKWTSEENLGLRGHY

[13] = target: Large T antigen (Simian virus 40, UniProt P03070); type: functional, Betapolyomavirus macacae;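 also: Confirmatory-stage PubChem screen for compounds that inhibit SV40 T antigen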
Sequence of Large T antigen (P03070 whole entry): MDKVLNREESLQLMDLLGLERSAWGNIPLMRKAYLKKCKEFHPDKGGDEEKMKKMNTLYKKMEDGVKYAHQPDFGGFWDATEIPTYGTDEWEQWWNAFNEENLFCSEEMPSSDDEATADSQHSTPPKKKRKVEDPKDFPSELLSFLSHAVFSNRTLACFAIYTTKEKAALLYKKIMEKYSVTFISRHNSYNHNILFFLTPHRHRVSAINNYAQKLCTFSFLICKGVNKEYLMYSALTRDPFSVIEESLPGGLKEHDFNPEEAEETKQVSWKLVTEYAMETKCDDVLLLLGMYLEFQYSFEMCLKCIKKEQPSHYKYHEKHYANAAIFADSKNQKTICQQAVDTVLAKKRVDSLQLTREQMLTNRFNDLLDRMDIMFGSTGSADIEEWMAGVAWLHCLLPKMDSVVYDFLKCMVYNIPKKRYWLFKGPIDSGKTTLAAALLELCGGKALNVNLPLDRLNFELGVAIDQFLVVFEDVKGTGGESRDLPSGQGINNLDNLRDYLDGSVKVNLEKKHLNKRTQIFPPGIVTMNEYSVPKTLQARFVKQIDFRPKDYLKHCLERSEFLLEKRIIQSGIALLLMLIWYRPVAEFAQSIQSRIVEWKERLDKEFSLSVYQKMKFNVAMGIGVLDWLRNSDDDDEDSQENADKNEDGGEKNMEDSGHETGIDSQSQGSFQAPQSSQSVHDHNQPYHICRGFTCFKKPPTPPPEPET

[14] = target: T5, Short transient receptor potential channel 4 (Mus musculus, UniProt Q9QUQ5); test: block of DAMGO-driven TRPC4 calcium entry – cell-based, HEK293 TRPC4/mu-opioid, Fluo-4 calcium, dose response (AID 434942); type: functional;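 also: potency of inhibitors blocking the TRPC4 calcium response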
T5 sequence (Q9QUQ5 whole entry): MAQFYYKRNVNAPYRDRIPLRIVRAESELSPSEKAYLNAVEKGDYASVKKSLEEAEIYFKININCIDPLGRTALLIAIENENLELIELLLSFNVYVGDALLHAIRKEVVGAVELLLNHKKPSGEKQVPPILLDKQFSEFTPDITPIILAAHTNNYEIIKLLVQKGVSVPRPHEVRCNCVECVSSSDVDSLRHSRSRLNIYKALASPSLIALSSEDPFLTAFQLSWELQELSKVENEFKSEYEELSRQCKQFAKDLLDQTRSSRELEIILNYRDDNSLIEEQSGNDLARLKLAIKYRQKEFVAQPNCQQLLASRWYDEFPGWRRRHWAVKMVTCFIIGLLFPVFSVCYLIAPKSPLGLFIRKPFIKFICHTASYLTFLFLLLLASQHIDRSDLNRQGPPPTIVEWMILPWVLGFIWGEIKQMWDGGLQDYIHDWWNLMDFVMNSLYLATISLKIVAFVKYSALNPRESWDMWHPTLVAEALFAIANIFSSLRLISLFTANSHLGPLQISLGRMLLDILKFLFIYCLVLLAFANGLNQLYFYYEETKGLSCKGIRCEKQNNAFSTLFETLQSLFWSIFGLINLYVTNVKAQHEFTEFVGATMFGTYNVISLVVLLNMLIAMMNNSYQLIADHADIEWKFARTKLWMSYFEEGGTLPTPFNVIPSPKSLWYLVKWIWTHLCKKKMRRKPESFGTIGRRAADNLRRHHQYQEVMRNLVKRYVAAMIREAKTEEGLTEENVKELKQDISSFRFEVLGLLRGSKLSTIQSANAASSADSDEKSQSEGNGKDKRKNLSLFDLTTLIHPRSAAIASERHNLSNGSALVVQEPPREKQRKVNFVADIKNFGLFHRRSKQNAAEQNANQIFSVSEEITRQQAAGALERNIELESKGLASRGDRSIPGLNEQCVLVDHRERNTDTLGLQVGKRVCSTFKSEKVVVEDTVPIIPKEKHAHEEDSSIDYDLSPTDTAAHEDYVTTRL

[15] = blockers of HIV-1 ZM109 envelope-driven cell-cell fusion – HeLa effector, CEM target cells, luciferase, cherry-pick, dose response (AID 652058); type: functional, cell-based;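 also: luciferase signal from HIV-1 Env mediated cell-cell fusion of effector and target cells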
[16] = target: Eukaryotic translation initiation factor 4E (Mus musculus, UniProt P63073); test: blockers of eIF4G binding by eIF4E – biochemical, TR-FRET, dose response (AID 855); type: functional;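 also: potency for disrupting eIF4E binding to eIF4GI seen as loss of FRET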
Sequence of Eukaryotic translation initiation factor 4E (P63073 whole entry): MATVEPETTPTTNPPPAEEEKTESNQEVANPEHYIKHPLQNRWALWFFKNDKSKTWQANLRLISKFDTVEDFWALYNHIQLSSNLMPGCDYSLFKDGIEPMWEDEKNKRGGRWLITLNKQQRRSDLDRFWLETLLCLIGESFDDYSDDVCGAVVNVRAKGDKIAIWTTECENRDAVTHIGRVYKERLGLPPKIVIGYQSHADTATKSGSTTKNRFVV

Compound: O=C(Cc1ccccc1)NCC(=O)OCC(=O)c1ccc([N+](=O)[O-])cc1
- IC50 [1]: > 80 µM (inactive)

Compound: CC(=O)Nc1ccc(NC(=O)CSc2nnnn2C2CCCCC2)cc1
- IC50 [2]: 11.8 µM (inactive)
- IC50 [3]: 7.58 µM (active)
- IC50 [4]: 35.9 µM (inactive)

Compound: O=C(Nc1cccc(-c2cn3ccccc3n2)c1)c1cc2ccccc2oc1=O
- IC50 [5]: 7.49 µM (active)

Compound: CC(C)(C)CC(=O)Nc1nnc(C(F)(F)F)s1
- EC50 [9]: > 160 µM (inactive)
- EC50 [10]: 0.13 µM (active)

Compound: C=CCn1c(O)c(N=NC(=S)Nc2ccc(OC)cc2)c2ccccc21
- EC50 [9]: > 150 µM (inactive)

Compound: CCCN1CCc2cc(O)cc3c2[C@H]1Cc1ccc(O)c(O)c1-3
- EC50 [11]: > 300 µM (inconclusive)
- EC50 [12]: > 300 µM (inconclusive)
- IC50 [13]: 24 µM (active)
- IC50 [1]: > 80 µM (inactive)

Compound: CCn1cc(C(=O)O)c(=O)c2cc(F)c(N3CCN(C(=S)NC(=O)c4ccc(F)cc4)CC3)cc21
- IC50 [5]: 11.7 µM (active)

Compound: CCc1ccc(C(=O)CN2C(=O)NC(C)(c3ccc(C)cc3)C2=O)cc1 (configuration not stated)
- AC50 [15]: 69 µM (active)

Compound: CC1CCN(C(=O)c2ccc3c(Cl)c4c(nc3c2)CCCC4)CC1
- IC50 [16]: 50 µM (inactive)
- IC50 [7]: 5.24 µM (active)
- IC50 [8]: 6.9 µM (active)

Compound: CN(C)c1ccc(NC(=O)C2C3C=CC(C3)C2C(=O)O)cc1 (configuration not stated)
- EC50 [9]: > 160 µM (inactive)
- EC50 [10]: > 38 µM (not active)

Continued, values first:

- AC50 [6]: 0.875 µM (active)
Compound: O=C(Nc1cccc(-c2nn[nH]n2)c1)c1ccc(Br)s1

- IC50 [7]: 9.52 µM (active)
- IC50 [8]: 16.8 µM (active)
Compound: CCn1c(=S)sc2c(=O)n(CC(=O)NC(C)CCc3ccccc3)c(C)nc21 (configuration not stated)

- EC50 [14]: 3.76 µM (active)
Compound: CC(C)(C)NCc1ccccc1OCc1cccs1

- EC50 [14]: 1.06 µM (active)
Compound: CCc1ccccc1N=C(S)N(CCCN(C)C)Cc1cc2cc3c(cc2nc1O)OCO3

- IC50 [7]: 3.26 µM (active)
- IC50 [8]: 3 µM (active)
Compound: CC(C)(C)c1ccc(/C=C2\CCn3c2nc2cc(C(=O)O)ccc2c3=O)cc1

- EC50 [14]: 6.68 µM (active)
Compound: CCOC(=O)CSc1nc2ccccc2c(=O)n1CC1CCCC1
